From US20210379062A1, “The use of a H3R inverse agonist for the treatment of excessive daytime sleepiness associated with parkinson's disease (PD)” (Novartis AG, priority 2018, published 2021) come the findings set out here.

Where “and” joins values, the source holds several entries; their conditions need not be identical. Equal values may be shown once.

The target of data set [1] is H3 receptors in the brain (Homo sapiens, UniProt Q9Y5N1). The experiment in a line: PET brain H3 receptor occupancy study with [11C]MK-8278 in healthy volunteers. The data set is classed as in vivo. The procedure: (§1) An open-label, adaptive design study was performed in healthy volunteers to characterize regional brain H3 receptor occupancy following single dose of Compound (I) by using positron emission tomography (PET) with the radioligand [^11C]MK-8278 (Van Laere, K. J. et al, Journal of Nuclear Medicine, 2014, 55: 65-72). The primary objective of this study was to evaluate the plasma concentration of Compound (I) leading to 50% occupancy of H3 receptors in the brain (EC50). A total of 6 subjects were enrolled into the study and were scanned in three cohorts of two subjects each. Prior to dosing with Compound (I), each subject underwent a baseline PET scan to assess binding of [^11C]MK-8278 to H3R in the absence of Compound (I). Subjects subsequently received single oral doses of Compound (I) and then underwent two post-dose PET scans. Subjects of cohort 1 received a single oral dose of 300 mg of Compound (I), corresponding to the single dose maximum tolerated dose (MTD) determined from the Phase I study after single oral dose of Compound (I). These subjects underwent two post-dose PET scans, at 3 hours and 27 hours after dosing. The doses and scan timings for the subsequent cohorts were selected based on interim data analyses following the completion of the preceding cohort(s). Subjects of cohorts 2 and 3 received a single oral dose of 10 mg and 0.3 mg, respectively. Compound (I) was administered as capsules in cohorts 1 and 2, whereas cohort 3 received Compound (I) as an oral solution. […] The first post-dose PET scan for cohorts 2 and 3 was acquired at 3 hours and the second one at 27 hours and 8 hours after dosing, respectively.
Chain of H3 receptors in the brain (Q9Y5N1 whole entry): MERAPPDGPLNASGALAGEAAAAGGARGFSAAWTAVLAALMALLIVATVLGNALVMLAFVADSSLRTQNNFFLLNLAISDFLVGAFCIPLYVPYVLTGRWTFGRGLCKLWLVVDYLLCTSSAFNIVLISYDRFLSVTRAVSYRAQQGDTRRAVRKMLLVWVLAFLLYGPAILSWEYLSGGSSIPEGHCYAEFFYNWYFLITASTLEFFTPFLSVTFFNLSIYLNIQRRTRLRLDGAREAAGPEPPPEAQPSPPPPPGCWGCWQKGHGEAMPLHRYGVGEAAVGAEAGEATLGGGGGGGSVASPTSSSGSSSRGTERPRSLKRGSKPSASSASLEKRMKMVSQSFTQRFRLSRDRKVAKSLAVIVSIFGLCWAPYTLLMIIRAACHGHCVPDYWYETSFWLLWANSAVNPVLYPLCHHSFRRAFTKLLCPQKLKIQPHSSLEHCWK
The binding was consistent with both the known distribution of H3 receptors and previous [^11C]MK-8278 data (Van Laere, K. J. et al, Journal of Nuclear Medicine, 2014, 55: 65-72). The kinetics of [^11C]MK-8278 in brain were analyzed using different modelling approaches, such as the one- and two-tissue compartment (1TC, 2TC) models, multilinear analysis (MA1; Ichise, M. et al., Journal of Cerebral Blood Flow and Metabolism, 2002, 22: 1271-1281) and the Logan graphical method (Logan, J. et al., Journal of Cerebral Blood Flow and Metabolism, 1990, 10(5): 740-747). All methods produced similar results, but the 2TC model was the most appropriate to derive regional VT values. Tissue time-activity curves (TACs) were generated for all scans and were characterized by a peak at around 5-15 minutes post-injection, followed by washout. After administration of Compound (I), regional binding of [^11C]MK-8278 was reduced compared to baseline scans, indicating engagement of Compound (I) with the target. The occupancy plot method proposed by Lassen (Lassen, N. A. et al., Journal of Cerebral Blood Flow and Metabolism, 1995, 15 (1): 152-165; Cunningham, V. J. et al., Journal of Cerebral Blood Flow and Metabolism, 2010, 30 (1): 46-50) was applied to estimate whole-brain H3 receptor occupancy for each post-dose PET scan. This method also provided consistent estimates of the non-displaceable component (VND).
The relationship between plasma concentration of Compound (I) and H3 receptor occupancy was characterized plotting occupancy estimates against corresponding plasma concentration data (measured at the start of each post-dose PET scan). The RO versus concentration was analyzed using the Emax model:
Where RO=Receptor occupancy; Emax=maximum receptor occupancy; Cp=plasma concentration of Compound (I) during PET scan; EC50=plasma concentration leading to 50% of maximum change in RO.

A short description of data set [2]: First-in-human SAD/MAD study: safety, tolerability, night sleep duration, formulation effect. The class given is in vivo. The procedure: as §1
PK data (drug concentration over time) from Part 1 and Part 2 of the Phase I study were used in the development of the model: • 1) Part 1 is the Single Ascending Dose part; 8 different cohorts were used, with each cohort composed of 6 active subjects and 2 placebo subjects. The dose amounts used in the 8 cohorts were 0.3, 1, 3, 10, 30, 100, 300 and 800 mg. Dosing was performed at time equal to 0 hours. […]

As to `Cn1nc(N2CCC(OC(=O)N3CCN(C4CCC4)CC3)CC2)ccc1=O` [Compound (I), 1-(1-methyl-6-oxo-1,6-dihydropyridazin-3-yl)piperidin-4-yl 4-cyclobutylpiperazine-1-carboxylate], in data set [1] (Emax model of PK-RO relationship), the “Emax (maximum receptor occupancy)” value is 96.1% and 96.16%. For the same molecule, the “Receptor occupancy (RO)” value is listed as “higher than 95%” in data set [1] (first cohort, single oral dose 300 mg, 3 hours post-dose, both subjects); “higher than 95%” in data set [1] (first cohort, single oral dose 300 mg, 27 hours post-dose, both subjects); “similarly high” in data set [1] (second cohort, single oral dose 10 mg, 3 hours post dose); “decreased” in data set [1] (second cohort, single oral dose 10 mg, 27 hours post dose); “generally lower than in the other cohorts” in data set [1] (third cohort, single oral dose 0.3 mg, 3 h and 8 h post dose). Moreover, the EC50 in data set [1] (read-out: EC50 (plasma concentration leading to 50% occupancy of H3 receptors), Emax model of PK-RO relationship, plasma concentration) is 0.772 nM. Moreover, in data set [2] (healthy volunteer study, repeated dose), the “highest tolerated repeated dose” value is on record as 50 mg. Moreover, in data set [2] (in vivo, po), the “difference in PK, capsule vs oral solution” value is “no clinically relevant difference”. The “single dose maximum tolerated dose (MTD)” value in data set [2] (single oral dose, Phase I study) worked out at 300 mg.
